Data set [1] relates to NIH-3T3 cells. As to the kind of experiment: % protein (toxicity estimate, Bradford) after transfection. In kind it is cell-based, mouse. As to the method: (§1) A one-to-one mixture (by weight) of the desired lipid and dioleylphosphatidyl ethanolamine was prepared in CHCl3. The CHCl3 was removed on the rotary evaporator to obtain a thin film of lipid mixture. The mixture was hydrated with enough water to obtain approximately 1.25 mg of lipid per ml of solution. The solution was passed through a microfluidizer twice and diluted to 1 mg/ml. The liposome formulation was then filtered through a 0.2 μ filter. Compound 8 was also formulated without DOPE either by sonication at 1 mg/ml in water or by dissolving a dried lipid film with ethanol and then adding water to give a final concentration of 2.5 mg/ml. Ethanol was 10% of that volume. In some instances, this was further diluted with water to 1 mg/ml, 4% ethanol.
(§2) Baby hamster kidney (BHK-21) , COS-7, HeLa-S3 cells, and normal human fibroblasts isolated from newborn foreskin dermis were grown in Dulbecco's-modified Eagle's medium (DMEM) containing 10% fetal bovine serum (FBS), 2 mM L-glutamine (gln), 0.1 mM MEM nonessential amino acids (NEAA), 100 U/ml penicillin, and 100 μg/ml streptomycin. […]
(§3) The "% protein" column indicates the relative amount of protein in the sample tested for CAT activity and therefore provides a way to estimate toxicity of the compounds being tested. […] Protein was measured using a commercially available Bradford protein assay (BioRad Laboratories, Richmond, Ca.). […]

In another data set the test system is BHK-21 cells. The data set is described as above. In kind it is cell-based, baby hamster. On the procedure: as §1, §2, §3
Data set [2] has as its system COS-7 cells. Described as above. The format is cell-based. The following applies: Cos-7. On the procedure:
as §1, §2, §3

Test in data set [3]: as above
In kind it is cell-based. Conditions: monkey, cos-7 cells; 12 μg lipid; 1 μg pSV2CAT; 6 h DMEM. On the procedure: as §1, §2, §3

Data set [4] has as its system COS-7 cells. As to the kind of experiment: CAT transient transfection. The format is cell-based. On the procedure:
as §1
(§4) Baby hamster kidney (BHK-21) , COS-7, HeLa-S3 cells, and normal human fibroblasts isolated from newborn foreskin dermis were grown in Dulbecco's-modified Eagle's medium (DMEM) containing 10% fetal bovine serum (FBS), 2 mM L-glutamine (gln), 0.1 mM MEM nonessential amino acids (NEAA), 100 U/ml penicillin, and 100 μg/ml streptomycin. NIH-3T3 cells were grown in DMEM containing 10% calf serum (CS), 2 mMgln, 0.1 mM NEAA 100 U/ml penicillin, and 100 μg/ml streptomycin. PC12 cells were grown in DMEMcontaining 10% horse serum, 5% FBS, 2 mM gln, 0 1 mMNEAA, 100 U/ml penicillin and 100 μ/ml streptomycin. Jurkat cells (human lymphoid cell line) were grown in RPMI-1640 supplemented with 10% FBS, 2mML-glutamine, 100 U/ml penicillin, and 100 μg/ml streptomycin. Human keratinocytes were isolated from newborn foreskin epidermis and cultured in Keratinocyte Growth Medium (Clonetics, San Diego, Ca.). All cell lines were maintained in a humidified incubator with a 5% CO2 atmosphere at 37° C.
(§5) pSV2CAT (5.0 Kb) was described previously (Gorman, C. M. et al. (1982) Mol. Cell. Biol. 2:1044). pCMVCAT (5.0 Kb) was also described previously (Foecking M. K. and Hofstetter, H. (1986) Gene 45:101). Plasmid DNA was purified by isopycnic centrifugation in CsCl/EtBr gradients after recovery by alkaline lysis (Maniatis, T. et al. (1982) in Molecular Cloning: A Laboratory Manual, Cold Spring Harbor Laboratory, Cold Spring Harbor, N.Y., pp. 90-91).
(§6) For transient transfection of pSV2CAT DNA or pCMVCAT DNA, cells were plated in 6-well tissue culture dishes (35 mm wells) and incubated overnight to approximately 60% confluency. To transfect cells in one well, 1-2 μg of pSV2CAT DNA or pCMVCAT DNA was diluted in 100 μl Opti-MEM I. Cationic lipids were diluted separately in another 100 μl aliquot of Opti-MEM I. The two solutions were then mixed in a polystyrene tube, incubated for 10-15 min at room temperature to allow the formation of a DNA-liposome complex, and diluted to one ml by adding 0.8 ml Opti-MEM I or DMEM containing 5% fetal bovine serum (FBS), 2 mMgln, 0.1 mMNEAA, and lacking antibiotics. The cells were washed once with Opti-MEM I or serum-free DMEM, and the DNA-liposome complex was added directly to the cells. After a six hr incubation at 37° C., the transfection complexes were removed and two ml of DMEM containing 10% FBS, 2 mMgln, 0.2 mMNEAA, 100 U/ml penicillin, and 100 μg/ml streptomycin, was added to each well. Note: human keratinocytes were cultured and transfected in Keratinocyte Growth Medium. Cells were incubated for an additional 48 hrs and lysed in situ by freeze-thawing once or twice in 300 μl 0.1M Tris-HC1, pH 7.8-8.0 containing 0 1% Triton X-100. Cell lysates were assayed for CAT activity.
(§7) Cell lysates were assayed for CAT activity as described by Neumann et al. (1987) BioTechniques 5:444 using [^14 C]-butyryl coenzyme A (New England Nuclear, Boston, Mass.). The enzyme reactions were incubated for 2 hrs at 37° C., overlayed with 3.0 ml Econofluor (New England Nuclear) and then incubated for an additional 2 hrs to allow diffusion of the acetylated chloramphenicol into the scintillation fluid. CAT activity was determined by measuring radioactivity in a liquid scintillation counter. […]

Data set [5] deals with normal human keratinocytes. The experiment in a line: CAT transient transfection. In kind it is cell-based. Conditions: keratinocytes. As to the method:
as §1, §4, §5, §6, §7

The next data set relates to normal human fibroblasts. The experiment in a line: CAT transient transfection. The format is cell-based. On the procedure:
as §1, §4, §5, §6, §7

Data set [6] deals with NIH-3T3 cells. As to the kind of experiment: CAT transient transfection. The format is cell-based, mouse. On the procedure:
as §1, §4, §5, §6, §7

A short description of data set [7]: % protein (toxicity estimate, Bradford) after transfection. The following applies: rat, pc12 cells; 40 μg lipid; 2 μg pCMVCAT; 6 h DMEM. In kind it is cell-based, rat. On the procedure: as §1, §2, §3
The subject of the next data set is PC12 cells. The experiment in a line: CAT transient transfection. The format is cell-based, rat. On the procedure:
as §1, §2
Cell lysates were assayed for CAT activity as described by Neumann et al. (1987) BioTechniques 5:444 using [^14 C]-butyryl coenzyme A (New England Nuclear, Boston, Mass.). […] CAT activity was determined by measuring radioactivity in a liquid scintillation counter. […]

Data set [8] has as its system normal human keratinocytes. The experiment in a line: % protein (toxicity estimate, Bradford) after transfection. The format is cell-based. On the procedure:
as §1
as §4, with “C. […]” for “C.”
as §3

Each structure is given as a SMILES string. Counter-ions that a name gives are not always drawn.

The term viability denotes the share of living cells, or the viability signal relative to a control. Take `CCCCCCCC/C=C\CCCCCCCCOCC(C[N+](C)(C)CCNC(=O)C(CCCNCCCN)NCCCN)OCCCCCCCC/C=C\CCCCCCCC` (centres unmarked) [Compound 8, 1-Propanaminium, N-[2-[[2,5-bis[(3-amino]-1-oxopentyl]amino]ethyl]-n,n-dimethyl-2,3,-bis(9-octadecenyloxy)-, tetra(trifluoroacetate) salt]: the “toxicity (in words)” value (in the data set with NIH-3T3 cells [1]; with BHK-21 cells; in the data set with COS-7 cells [2]; in data set [8]) was “minimal toxicity” each time. Further, the viability at 6 h in data set [3] was 99.1%; in [7], 66%. The “CAT ACTIVITY” value is recorded as 14,282 CPM/150 ul with COS-7 cells [4] (12 μg lipid, 1 μg pSV2CAT, 6 h DMEM); 30,488 CPM/150 ul in the data set on NIH-3T3 cells [6] (15 μg lipid, 2 μg pCMVCAT, 6 h DMEM); 28,512 CPM/150 ul with PC12 cells (40 μg lipid, 2 μg pCMVCAT, 6 h DMEM). Besides, the “DNA transfection (in words)” value in the data set with COS-7 cells [4] (Cos-7) is “highly effective”; in data set [5], “highly effective”; in the data set with normal human fibroblasts, “successfully transfected”; in the data set on NIH-3T3 cells [6] (NIH-3T3), “highly effective”; with PC12 cells (PC12), “highly effective”.

The values above are taken from patent US5334761A, “Cationic lipids” (Life Technologies, Inc., priority 1992, dated 1994).
